# Data as given in patent US7138361B2, “Herbicidal heterocycles” (E. I. du Pont de Nemours and Company, priority 2000, dated 2006).
# Tests used:
# Format in all cases: in vivo
# [1] = test system: crabgrass (Digitaria sanguinalis); assay: Test B postemergence; settings: 13 to 15 days
# In short: (§1)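 Seeds were planted and sprayed preemergence with test chemical in a non-phytotoxic solvent mixture containing surfactant; postemergence plants (2 to 18 cm, 1- to 4-leaf stage) received the same formulation. Greenhouse hold 13 to 15 days, then visual rating versus untreated controls on a 0–100 scale (0 no effect, 100 complete control).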
# [2] = test system: Surinam grass (Brachiaria decumbens); assay: Test B postemergence; settings: 13 to 15 days
# In short: as §1
# wild oat (Avena fatua) = assay: Test B postemergence; settings: 13 to 15 days
# In short: as §1
# [3] = test system: giant foxtail (Setaria faberii); assay: Test B postemergence; settings: 13 to 15 days
# In short: as §1
# [4] = test system: lambsquarters (Chenopodium album); assay: Test B postemergence; settings: 13 to 15 days
# In short: as §1
# [5] = test system: cocklebur (Xanthium strumarium); assay: Test B postemergence; settings: 13 to 15 days
# In short: as §1
# [6] = test system: barnyardgrass (Echinochloa crus-galli); assay: Test B postemergence; settings: 13 to 15 days
# In short: as §1
# [7] = test system: blackgrass (Alopecurus myosuroides); assay: Test B postemergence; settings: 13 to 15 days
# In short: as §1
# [8] = test system: pigweed (Amaranthus retroflexus); assay: Test B postemergence; settings: 13 to 15 days
# In short: as §1
# [9] = test system: morning glory (Ipomoea hederacea); assay: Test B postemergence; settings: 13 to 15 days
# In short: as §1
# [10] = test system: velvetleaf (Abutilon theophrasti); assay: Test B postemergence; settings: 13 to 15 days
# In short: as §1
# corn (Zea mays) [11] = assay: Test B postemergence; settings: 13 to 15 days
# In short: as §1
# [12] = test system: wheat (Triticum aestivum); assay: Test B postemergence; settings: 13 to 15 days
# In short: as §1
# [13] = test system: duck salad (Heteranthera limosa); assay: Test C flooded paddy test; settings: for Ducksalad plant response rating: Flooded Paddy, scale 0 to 100, 0 no effect, 100 complete control; for Plant response rating, Ducksalad: flooded paddy test, scale 0 to 100 (0 no effect, 100 complete control)
# In short: (§2)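 Visually assessed vs untreated controls 12–14 d post-treatment (greenhouse). Flooded paddy plants were at the 2-leaf stage; scale 0 = no effect, 100 = complete control.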
# rice (Oryza saliva) [14] = assay: Test C flooded paddy test; settings: for Rice plant response rating: Flooded Paddy, scale 0 to 100, 0 no effect, 100 complete control; for Plant response rating, Rice: flooded paddy test, scale 0 to 100 (0 no effect, 100 complete control)
# In short: as §2
# [15] = test system: barnyardgrass (Echinochloa crus-galli); assay: Test C flooded paddy test; settings: for Barnyardgrass plant response rating: Flooded Paddy, scale 0 to 100, 0 no effect, 100 complete control; for Plant response rating, Barnyardgrass: flooded paddy test, scale 0 to 100 (0 no effect, 100 complete control)
# In short: as §2
# [16] = test system: smallflower flatsedge (Cyperus difformis); assay: Test C flooded paddy test; settings: for Flatsedge plant response rating: Flooded Paddy, scale 0 to 100, 0 no effect, 100 complete control; for Plant response rating, Flatsedge: flooded paddy test, scale 0 to 100 (0 no effect, 100 complete control)
# In short: as §2
# [17] = test system: crabgrass (Digitaria sanguinalis); assay: Test B preemergence
# In short: as §1
# [18] = test system: Surinam grass (Brachiaria decumbens); assay: Test B preemergence
# In short: as §1
# rice (Oryza saliva) [19] = assay: Test B preemergence
# In short: as §1
# [20] = test system: giant foxtail (Setaria faberii); assay: Test B preemergence
# In short: as §1
# [21] = test system: lambsquarters (Chenopodium album); assay: Test B preemergence
# In short: as §1
# [22] = test system: cocklebur (Xanthium strumarium); assay: Test B preemergence
# In short: as §1
# [23] = test system: barnyardgrass (Echinochloa crus-galli); assay: Test B preemergence
# In short: as §1
# [24] = test system: pigweed (Amaranthus retroflexus); assay: Test B preemergence
# In short: as §1
# [25] = test system: morning glory (Ipomoea hederacea); assay: Test B preemergence
# In short: as §1
# [26] = test system: velvetleaf (Abutilon theophrasti); assay: Test B preemergence
# In short: as §1
# corn (Zea mays) [27] = assay: Test B preemergence
# In short: as §1
# [28] = Rate 125 g/ha, scale 0 (no effect) to 100 (complete control)
# [29] = Rate 500 g/ha, scale 0 to 100, 0 is no effect, 100 is complete control
# [30] = Preemergence, Rate 500 g/ha, scale 0 to 100, 0 no effect, 100 complete control
# [31] = preemergence, Rate 125 g/ha, scale of 0 to 100 where 0 is no effect and 100 is complete control, 13 to 15 days
smiles,measurement,setting,value
Cc1ccc(N2CCC(n3ccc(C(C)(C)C)n3)C2=O)cc1OC(C)C (centres unmarked) [Compound 110],"Plant response rating, Crabgrass",[1]; [28],0
same,"Plant response rating, Crabgrass",[1]; [29],0
same,"Plant response rating, Surinam grass",[2]; [28],0
same,"Plant response rating, Surinam grass",[2]; [29],0
same,"Plant response rating, Wild Oat",wild oat (Avena fatua); [29],0
same,"Plant response rating, Foxtail, Giant",[3]; [28],0
same,"Plant response rating, Foxtail, Giant",[3]; [29],0
same,"Plant response rating, Lambsquarters",[4]; [29],90
same,"Plant response rating, Cocklebur",[5]; [28],30
same,"Plant response rating, Cocklebur",[5]; [29],30
same,"Plant response rating, Barnyardgrass",[6]; [28],0
same,"Plant response rating, Barnyardgrass",[6]; [29],0
same,"Plant response rating, Blackgrass",[7]; [28],0
same,"Plant response rating, Blackgrass",[7]; [29],0
same,"Plant response rating, Pigweed",[8]; [29],70
same,"Plant response rating, Morningglory",[9]; [29],60
same,"Plant response rating, Velvetleaf",[10]; [29],70
same,"Plant response rating, Corn",corn (Zea mays) [11]; [28],0
same,"Plant response rating, Corn",corn (Zea mays) [11]; [29],0
same,"Plant response rating, Wheat",[12]; [29],0
same,Ducksalad plant response rating,[13]; Rate 250 g/ha,70
same,Ducksalad plant response rating,[13]; Rate 500 g/ha,70
same,"Plant response rating, Ducksalad",[13]; Rate 62 g/ha,10
same,"Plant response rating, Ducksalad",[13]; Rate 125 g/ha,20
same,Rice plant response rating,rice (Oryza saliva) [14]; Rate 250 g/ha,70
same,Rice plant response rating,rice (Oryza saliva) [14]; Rate 500 g/ha,80
same,"Plant response rating, Rice",rice (Oryza saliva) [14]; Rate 62 g/ha,0
same,"Plant response rating, Rice",rice (Oryza saliva) [14]; Rate 125 g/ha,30
same,Barnyardgrass plant response rating,[15]; Rate 250 g/ha,70
same,Barnyardgrass plant response rating,[15]; Rate 500 g/ha,80
same,"Plant response rating, Barnyardgrass",[15]; Rate 62 g/ha,0
same,"Plant response rating, Barnyardgrass",[15]; Rate 125 g/ha,0
same,Flatsedge plant response rating,[16]; Rate 250 g/ha,100
same,Flatsedge plant response rating,[16]; Rate 500 g/ha,100
same,"Plant response rating, Flatsedge",[16]; Rate 62 g/ha,50
same,"Plant response rating, Flatsedge",[16]; Rate 125 g/ha,50
same,"Plant response rating, Crabgrass",[17]; [30],100
same,"Plant response rating, Crabgrass",[17]; [31],100
same,"Plant response rating, Surinam grass",[18]; [30],40
same,"Plant response rating, Surinam grass",[18]; [31],0
same,"Plant response rating, Rice",rice (Oryza saliva) [19]; [30],0
same,"Plant response rating, Rice",rice (Oryza saliva) [19]; [31],0
same,"Plant response rating, Foxtail, Giant",[20]; [30],50
same,"Plant response rating, Foxtail, Giant",[20]; [31],0
same,"Plant response rating, Lambsquarters",[21]; [30],100
same,"Plant response rating, Lambsquarters",[21]; [31],0
same,"Plant response rating, Cocklebur",[22]; [30],70
same,"Plant response rating, Cocklebur",[22]; [31],0
same,"Plant response rating, Barnyardgrass",[23]; [30],0
same,"Plant response rating, Barnyardgrass",[23]; [31],30
same,"Plant response rating, Pigweed",[24]; [30],100
same,"Plant response rating, Pigweed",[24]; [31],100
same,"Plant response rating, Morningglory",[25]; [30],0
same,"Plant response rating, Morningglory",[25]; [31],0
same,"Plant response rating, Velvetleaf",[26]; [30],80
same,"Plant response rating, Velvetleaf",[26]; [31],0
same,"Plant response rating, Corn",corn (Zea mays) [27]; [30],0
same,"Plant response rating, Corn",corn (Zea mays) [27]; [31],0
Cc1c(Cl)cc(N2CCC(n3ccc(C(C)(C)C)n3)C2=O)cc1Cl (centres unmarked) [Compound 74],"Plant response rating, Crabgrass",[1]; [28],0
same,"Plant response rating, Crabgrass",[1]; [29],0
same,"Plant response rating, Surinam grass",[2]; [28],0
same,"Plant response rating, Surinam grass",[2]; [29],0
same,"Plant response rating, Wild Oat",wild oat (Avena fatua); [28],0
same,"Plant response rating, Wild Oat",wild oat (Avena fatua); [29],0
same,"Plant response rating, Foxtail, Giant",[3]; [28],0
same,"Plant response rating, Foxtail, Giant",[3]; [29],0
same,"Plant response rating, Lambsquarters",[4]; [28],0
same,"Plant response rating, Lambsquarters",[4]; [29],0
same,"Plant response rating, Cocklebur",[5]; [28],0
same,"Plant response rating, Cocklebur",[5]; [29],0
same,"Plant response rating, Barnyardgrass",[6]; [28],0
same,"Plant response rating, Barnyardgrass",[6]; [29],0
same,"Plant response rating, Blackgrass",[7]; [28],0
same,"Plant response rating, Blackgrass",[7]; [29],0
same,"Plant response rating, Pigweed",[8]; [28],80
same,"Plant response rating, Pigweed",[8]; [29],90
same,"Plant response rating, Morningglory",[9]; [28],0
same,"Plant response rating, Morningglory",[9]; [29],0
same,"Plant response rating, Velvetleaf",[10]; [28],0
same,"Plant response rating, Velvetleaf",[10]; [29],0
same,"Plant response rating, Corn",corn (Zea mays) [11]; [28],0
same,"Plant response rating, Corn",corn (Zea mays) [11]; [29],0
same,"Plant response rating, Wheat",[12]; [28],0
same,"Plant response rating, Wheat",[12]; [29],0
same,Ducksalad plant response rating,[13]; Rate 250 g/ha,0
same,Ducksalad plant response rating,[13]; Rate 500 g/ha,0
same,"Plant response rating, Ducksalad",[13]; Rate 62 g/ha,0
same,"Plant response rating, Ducksalad",[13]; Rate 125 g/ha,0
same,Rice plant response rating,rice (Oryza saliva) [14]; Rate 250 g/ha,0
same,Rice plant response rating,rice (Oryza saliva) [14]; Rate 500 g/ha,0
same,"Plant response rating, Rice",rice (Oryza saliva) [14]; Rate 62 g/ha,0
same,"Plant response rating, Rice",rice (Oryza saliva) [14]; Rate 125 g/ha,0
same,Barnyardgrass plant response rating,[15]; Rate 250 g/ha,0
same,Barnyardgrass plant response rating,[15]; Rate 500 g/ha,0
same,"Plant response rating, Barnyardgrass",[15]; Rate 62 g/ha,0
same,"Plant response rating, Barnyardgrass",[15]; Rate 125 g/ha,0
same,Flatsedge plant response rating,[16]; Rate 250 g/ha,0
same,Flatsedge plant response rating,[16]; Rate 500 g/ha,40
same,"Plant response rating, Flatsedge",[16]; Rate 62 g/ha,0
same,"Plant response rating, Flatsedge",[16]; Rate 125 g/ha,0
same,"Plant response rating, Crabgrass",[17]; [30],70
same,"Plant response rating, Crabgrass",[17]; [31],20
same,"Plant response rating, Surinam grass",[18]; [30],20
same,"Plant response rating, Surinam grass",[18]; [31],0
same,"Plant response rating, Rice",rice (Oryza saliva) [19]; [30],0
same,"Plant response rating, Rice",rice (Oryza saliva) [19]; [31],0
same,"Plant response rating, Foxtail, Giant",[20]; [30],60
same,"Plant response rating, Foxtail, Giant",[20]; [31],0
same,"Plant response rating, Lambsquarters",[21]; [30],100
same,"Plant response rating, Lambsquarters",[21]; [31],100
same,"Plant response rating, Cocklebur",[22]; [30],0
same,"Plant response rating, Cocklebur",[22]; [31],0
same,"Plant response rating, Barnyardgrass",[23]; [30],90
same,"Plant response rating, Barnyardgrass",[23]; [31],30
same,"Plant response rating, Pigweed",[24]; [30],90
same,"Plant response rating, Pigweed",[24]; [31],80
same,"Plant response rating, Morningglory",[25]; [30],0
same,"Plant response rating, Morningglory",[25]; [31],0
same,"Plant response rating, Velvetleaf",[26]; [30],0
same,"Plant response rating, Velvetleaf",[26]; [31],0
same,"Plant response rating, Corn",corn (Zea mays) [27]; [30],0
same,"Plant response rating, Corn",corn (Zea mays) [27]; [31],0
